Experimental data reported in US20250255961A1, “METHODS TO STIMULATE IMMUNE RESPONSES TO MUTANT RAS USING NUCLEATED CELLS” (STEMCELL TECHNOLOGIES CANADA INC., priority 2020, published 2025).

Tests used:
[1] = test system: K-Ras G12V responder T cells; test: IFN-γ ELISPOT: peptide-loaded HLA-A*11+ human PBMCs co-cultured with K-Ras G12V responder T cells; type: cell-based; conditions: Example 4, FIG. 4, HLA-A*11+ human PBMCs (donor 296) SQZ-loaded with 100 μM SLP
Description: (§1) Human PBMCs from HLA-A*11^+ donor (donor 296) were prepared at a density of 10×10^6/mL, SQZ processed at room temperature through a constriction of 4.5 μm width, 10 μm length and 70 μm depth at 60 psi with 100 μM of the respective K-Ras synthetic long peptide (G12V^1-16, G12V^2-19) or with vehicle control (DMSO) in RPMI medium. Following SQZ-processing, the SQZ-loaded PMBCs were centrifuged, and the supernatant was discarded. The cells were subsequently washed once in R10 medium (RPMI+10% FCS+1% Pen/Strep), then washed twice in CTL medium (supplemented with 1% glutamine), before resuspension in fresh CTL medium (supplemented with 1% glutamine).
2×10^5 SQZ-loaded PBMCs were then placed in co-culture with 5×10^4 K-Ras G12V responder T cells (generated in transgenic mice) in an IFN-γ ELISPOT plate. As a positive control, 10 μM K-Ras G12V^7-16 peptide containing the minimal epitope was added directly to untreated PBMCs and responder cells in the ELISPOT plate (peptide spike). The plate was incubated overnight at 37° C. and then developed/quantified according to manufacturer's instructions.
as §1, with “donor” for “donor (donor 296)”, “constriction with” for “constriction of”, “peptide (K-Ras G12V^3-17, K-Ras G12V^3-42)” for “peptide (G12V^1-16, G12V^2-19)”, “medium. An irrelevant synthetic long peptide (HPV-E7.6) was used as a negative control.” for “medium.”
as §1, with “donor” for “donor (donor 296)”, “10× 10^6/mL,” for “10×10^6/mL,”, “(wild type K-Ras^1-16, G12V^1-16, wild type K-Ras^2-22, or G12V^2-22)” for “(G12V^1-16, G12V^2-19)”
as §1, with “donor” for “donor (donor 296)”, “of a single” for “of the respective”, “peptide (G12V^1-16” for “peptide (G12V^1-16, G12V^2-19)”, “or G12V^2-19), or a combination of two K-Ras synthetic long peptides which are each at 100 μM (G12V^1-16 plus G12D^1-16 or G12V^2-19 plus G12D^1-16) or” for “or with”, “glutamine). […]” for “glutamine).”

[2] = test system: K-Ras G12V responder T cells; test: as above; type: cell-based; conditions: Example 8, FIG. 8; HLA-A*11+ human PBMCs SQZ-loaded with one SLP or a combination of two SLPs, each at 100 μM

## TEYKLVVVGAVGVGKSAL [G12V^2-19, K-Ras G12V synthetic long peptide, residues 2-19]
[1]
  IFN-γ secretion by K-Ras-G12V responder T cells upon co-culture: significantly increased
[1]; listed as K-Ras-G12V^2-19
  IFN-γ secretion by K-Ras-G12V responder T cells upon co-culture: increased amount
[2]
  IFN-γ expressing K-Ras-G12V responder T cells upon co-culture: significant increases
